Experimental data taken from publication PMC12736951, “Design, Synthesis, and Biological Evaluation of 6″-Modified Apramycin Derivatives to Overcome Aminoglycoside Resistance” (Pharmaceutics, 2025).
In brackets after ≈: the same amount, converted by molar mass. Like-named read-outs stand apart in the source and are kept apart here.

How the values were obtained:
E. coli JW5503 ApmR = assay: MIC against transformant carrying AAC(3)-IV; type: cell-based
Protocol: (§1) The determination of the MIC values was performed on five strains from the working collection of MSU. E. coli JW5503 [25], which lacked a kanamycin resistance cassette that had been removed as per the method outlined in [26], and a strain derived from this strain through in vitro selection with kanamycin. […] Strains containing AG-modifying enzymes were obtained through the transformation of E. coli JW5503 with plasmids that carried cassettes of resistance, namely pCRISPomyces-2–AAC(3)-IV (Addgene #61737), pdualrep2–APH(3′)-II [27] and pt67–ANT(3″). The MIC determination was performed as described for JW5503 in [19].

E. coli MAR17-1350 = assay: MIC, MDR clinical isolate; type: cell-based; details: E. coli MAR17-1350, MDR clinical isolate (NDM-5)
Text: (§2) The microbial strains used in this study were obtained from the collection of the Gause Institute of New Antibiotics. The control strains included in the analysis were S. aureus ATCC 29213, E. coli ATCC 25922, P. aeruginosa ATCC 27853, M. smegmatis ATCC 607. Clinical isolates E. coli MAR17-1350, K. pneumoniae APEX-5, K. pneumoniae MAR14-3395, and K. pneumoniae MAR18-1752 with multidrug resistance, including resistance to aminoglycosides were kindly provided by the Research Institute of Antimicrobial Chemotherapy (RIAC) of the Smolensk State Medical University, Smolensk. The microbial cultures were stored at −75 °C in trypticase soy broth (Becton, Dickinson, France) containing 10–15% glycerol. Storage was carried out in accordance with CLSI guidelines. Prior to experimentation, the bacterial strains were revived from cryopreservation by inoculating them onto trypticase soy agar (Becton, Dickinson, France) and incubating at (36 ± 1) °C for 16–24 h. Individual morphologically homogeneous colonies were then suspended in sterile physiological saline, and the turbidity of the suspension was adjusted to 0.5 McFarland units using a DEN-1 spectrophotometer (Biosan, Riga, Latvia), which corresponds to a concentration of 1.5 × 10^8 CFU/mL.
(§3) The samples were dissolved in sterile distilled water, depending on the physicochemical properties of the compounds under investigation, to a concentration of 10,000 µg/mL. Working solutions were then prepared by serial dilution, resulting in concentrations ranging from 64 µg/mL to 0.125 µg/mL.
(§4) Activity was evaluated by determining the minimum inhibitory concentration (MIC) values using the microdilution method in Mueller–Hinton Broth (Beckton and Dickinson, Le Pont-de-Claix, France), in accordance with the standard procedure for assessing the antimicrobial susceptibility of microorganisms.
(§5) The analysis was conducted in 96-well microtiter plates (Medpolymer, Saint Petersburg, Russia). The bacterial inoculum was introduced within 15 min of preparation. MIC values were determined after incubation for 15–18 h at (36 ± 1) °C. Microbial growth in the presence of the tested compounds was compared to the growth control (without exposure to the test samples). The MIC was defined as the lowest concentration at which visible microbial growth was inhibited.
(§6) To ensure the accuracy of the results, the control antibiotics kanamycin A, gentamycin, and tobramycin (Abcr GmbH, Karlsruhe, Germany) were included, along with standard reference strains: E. coli ATCC 25922. The MIC values for kanamycin A were determined as follows: E. coli ATCC 25922—1–4 µg/mL [22]. For gentamycin, the MIC values were E. coli ATCC 25922–0.25–1 µg/mL [23]. For tobramycin, the MIC values were E. coli ATCC 25922–0.25–1 µg/mL [23]. The MIC values of the reference strains were required to fall within the acceptable ranges specified in [24], provided that standard assay conditions were maintained.

K. pneumoniae APEX-5 = assay: MIC, MDR clinical isolate; type: cell-based; details: K. pneumoniae APEX-5, MDR clinical isolate (NDM-16)
Text: as §2, §3, §4, §5, §6

K. pneumoniae MAR14-3395 = assay: MIC, MDR clinical isolate; type: cell-based; details: K. pneumoniae MAR14-3395, MDR clinical isolate (NDM-1 + OXA-244)
Text: as §2, §3, §4, §5, §6

K. pneumoniae MAR18-1752 = assay: MIC, MDR clinical isolate; type: cell-based; details: K. pneumoniae MAR18-1752, MDR clinical isolate (NDM-1)
Text: as §2, §3, §4, §5, §6

E. coli JW5503 SmR = assay: MIC against transformant carrying ANT(3″); type: cell-based
Protocol: as §1

E. coli ATCC 25922 [1] = details: E. coli ATCC 25922, reference strain quality control; cited from earlier work
E. coli JW5503 KanR = assay: MIC against transformant carrying APH(3′)-II; type: cell-based
Protocol: as §1

E. coli ATCC 25922 [2] = assay: MIC, broth microdilution; type: cell-based, Escherichia coli
Text: as §2, §3, §4, §5, §6

[3] = test system: E. coli JW5503 EF-G P610T; assay: MIC against aminoglycoside-resistant EF-G mutant; type: cell-based
Protocol: as §1

E. coli JW5503 kanS = assay: MIC against E. coli JW5503 parent strain; type: cell-based
Protocol: as §1

M. smegmatis ATCC 607 = assay: MIC, broth microdilution; type: cell-based, Mycobacterium smegmatis; details: Mycolicibacterium smegmatis, ATCC607, Table 1
Text: as §2, §3, §4, §5, §6

[4] = test system: HEK293T human embryonic kidney cell line; assay: Cytotoxicity, MTT test; type: cell-based; details: HEK-293T, 72 h, 2-250 µg/mL, read-out: IC50, viability of HEK293T cells
Protocol: The MTT test was performed in order to evaluate the effect of the compounds on eukaryotic cells’ survivability. Compounds 5a,b, 8a,b, and apramycin, as the reference drug, were tested on HEK293T human embryonic kidney cell line (ATCC). Compounds 5a,b, 8a,b, and apramycin were prepared as water solutions with a 50 mg/mL concentration. The HEK293T cell line was cultivated in DMEM/F-12 medium (Paneco LLC, Moscow, Russia) containing 10% FBS, 50 µg/mL penicillin, and 50 µg/mL streptomycin (Thermo Fisher Scientific, USA) at 37 °C in 5% CO2. Triplicates on 96-well plates were used, and 2500 HEK293T cells were seeded in 140 µL of DMEM/F-12 medium in each well during day one. The next day, compounds in twofold successive dilutions were added to these plates (concentrations in wells ranged between 2 and 250 µg/mL for 5a, 5b, and 8a, 8b). Plates were incubated for 72 h at 37 °C in 5% CO2. Afterwards, 0.5 mg/mL of the MTT reagent (Paneco LLC, Moscow, Russia) was added to each well. After 2 h of incubation, the media with MTT was replaced with 140 µL of DMSO, and all plates were placed on a shaker for 10 min for formazan to dissolve. Finally, the absorbance at a 555 nm wavelength was measured on all plates via the plate reader Victor X5 (PerkinElmer, Waltham, MA, USA). The data were then normalized, and dose–response curves and IC50 were calculated by means of GraphPad Prism version 8.0.2. (GraphPad Software, Inc., San Diego, CA, USA).

[5] = test system: E. coli JW5503 with pJC27 β-galactosidase codon 537 reporter; assay: Translation accuracy using β-galactosidase reporters; type: cell-based; details: 0.1 μL of 50 mg/mL, 37 °C, 18 h, codon 537 GAC/GGG reporters
Protocol: To evaluate translation accuracy in the presence of antibiotics, E. coli JW5503 (kanamycin resistance cassette removed as per) was transformed with pJC27 plasmids. […] The synthesis of active β-galactosidase depends on translation errors occurring (when codons GAC and GGG are read as GAA). Petri dishes (9 cm) containing 20 mL of solid LB agar (1.5%), supplemented with chloramphenicol (11.3 μg/mL) and X-Gal (80 μg/mL), were prepared. A secondary soft-agar layer comprising 3.5 mL of LB agar (0.6%) supplemented with 11.3 μg/mL chloramphenicol and 0.5 mL of liquid culture (A600~1.0) was added and allowed to solidify. Antibiotics were applied to the plates in 0.1 μL aliquots at a concentration of 50 mg/mL for tobramycin, streptomycin, kanamycin, and apramycin, and for 5a, 5b, 8a, and 8b. The plates were then incubated at 37 °C for 18 h. […] The results were documented using a Samsung Galaxy Tab A71 camera.

S. aureus ATCC 29213 = assay: MIC, broth microdilution; type: cell-based; details: Staphylococcus aureus, ATCC29213, Table 1
Text: as §2, §3, §4, §5, §6

P. aeruginosa ATCC 27853 = assay: MIC, broth microdilution; type: cell-based; details: Pseudomonas aeruginosa, ATCC27853, Table 1
Text: as §2, §3, §4, §5, §6

[6] = Escherichia coli, MAR171350, read-out: MIC
[7] = Klebsiella pneumoniae, APEX5, read-out: MIC
[8] = Klebsiella pneumoniae, MAR143395, read-out: MIC
[9] = Klebsiella pneumoniae, MAR181752, read-out: MIC

| Molecule | MIC, control antibiotic range (E. coli ATCC 25922 [1]) [µg/mL] | MIC (E. coli JW5503 ApmR; Escherichia coli, JW5503APMR) [µg/mL] | MIC (E. coli MAR17-1350; [6]) [µg/mL] | MIC (K. pneumoniae APEX-5; [7]) [µg/mL] | MIC (K. pneumoniae MAR14-3395; [8]) [µg/mL] | MIC (K. pneumoniae MAR18-1752; [9]) [µg/mL] | MIC (E. coli JW5503 SmR; Escherichia coli, JW5503SMR) [µg/mL] | MIC (E. coli JW5503 KanR; Escherichia coli, JW5503KANR) [µg/mL] | MIC ([3]; Escherichia coli) [µg/mL] | MIC (E. coli JW5503 kanS; Escherichia coli, JW5503KANS) [µg/mL] | other results |
| --- | --- | --- | --- | --- | --- | --- | --- | --- | --- | --- | --- |
| kanamycin A [reference compound] | 1 to 4 | – | – | – | – | – | – | – | – | – | MIC (E. coli JW5503 ApmR; E. coli JW5503 ApmR, AAC(3)-IV on plasmid): 32 µg/mL; MIC (E. coli MAR17-1350): >128 µg/mL; MIC (K. pneumoniae APEX-5): >128 µg/mL; MIC (K. pneumoniae MAR14-3395): >128 µg/mL; MIC (K. pneumoniae MAR18-1752): >128 µg/mL; MIC (E. coli JW5503 SmR; E. coli JW5503 SmR, ANT(3″) on plasmid): 8 µg/mL; MIC (E. coli JW5503 KanR; E. coli JW5503 KanR, APH(3′)-II on plasmid): >256 µg/mL; MIC (E. coli ATCC 25922 [2]; Table 2): 2 µg/mL; MIC ([3]; E. coli JW5503 EF-G P610T (fusA mutant)): 64 µg/mL; MIC (E. coli JW5503 kanS; E. coli JW5503 kanS (parent strain)): 4 µg/mL |
| CN[C@@H]1[C@@H](O[C@H]2O[C@H](CO)[C@@H](N)[C@H](O)[C@H]2O)OC2C[C@@H](N)[C@@H](O[C@H]3[C@H](O)[C@@H](O)[C@H](N)C[C@@H]3N)OC2[C@@H]1O (stereo partly drawn) [Apramycin (1), apramycin] | – | > 256 | 4 (≈ 7.41 µM) | 1 (≈ 1.85 µM) | 1 | 1 (≈ 1.85 µM) | 8 (≈ 14.8 µM) | 4 (≈ 7.41 µM) | 64 (≈ 119 µM) | 8 (≈ 14.8 µM) | MIC (M. smegmatis ATCC 607): 0.125 µg/mL (≈ 0.232 µM); IC50 [4]: > 250 µg/mL; induction of translation errors (blue staining at edge of inhibition zone) [5]: blue staining; MIC (E. coli ATCC 25922 [2]; Escherichia coli, ATCC25922, Table 1, read-out: MIC): 1 µg/mL (≈ 1.85 µM); MIC (S. aureus ATCC 29213): 1 µg/mL (≈ 1.85 µM); MIC (P. aeruginosa ATCC 27853): 2 µg/mL (≈ 3.71 µM) |
| [H]/N=C(/N)N[C@H]1[C@H](O)[C@@H](O)[C@H](O[C@@H]2O[C@@H](C)[C@](O)(C=O)[C@H]2O[C@@H]2O[C@@H](CO)[C@H](O)[C@@H](O)[C@@H]2NC)[C@@H](N/C(N)=N\[H])[C@@H]1O [Streptomycin, streptomycin, reference compound] | – | 4 (≈ 6.88 µM) | – | – | – | – | > 256 | 4 (≈ 6.88 µM) | 8 (≈ 13.8 µM) | 4 (≈ 6.88 µM) | – |
| NC[C@H]1O[C@H](O[C@H]2[C@H](O)[C@@H](O[C@H]3O[C@H](CO)[C@@H](O)[C@H](N)[C@H]3O)[C@H](N)C[C@@H]2N)[C@H](N)C[C@@H]1O [Tobramycin, tobramycin, reference compound] | 0.25 to 1 | > 256 | > 128 | 32 (≈ 68.4 µM) | > 128 | > 128 | 4 (≈ 8.56 µM) | 2 (≈ 4.28 µM) | 16 (≈ 34.2 µM) | 2 (≈ 4.28 µM) | MIC (E. coli ATCC 25922 [2]; Escherichia coli, ATCC25922, Table 2, read-out: MIC): 0.5 µg/mL (≈ 1.07 µM) |
